Assay results reported in patent US10828143B2, “Tissue-engineered bowel constructs” (Wake Forest University Health Sciences, priority 2015, dated 2020).
“Also recorded” adds a separate entry of the source.

Key:
Parameters in all cases: species or system human
[1] = test system: circular strips of implanted engineered sphincter and gut segments; assay: Real time force generation of circular strips of harvested sphincters and gut tissues
circular strips of hTEB = assay: Organ bath studies of hTEB circular strips following omentum implantation
[2] = test system: sphincter and rectal cuff cross sections; assay: Physiological studies on cross sections of harvested sphincter and rectal cuff

COC(=O)[C@@H](N)CCCNC(=N)N[N+](=O)[O-].Cl [LNAME, Nω-Nitro-L-arginine methyl ester hydrochloride]
EFS-induced relaxation after LNAME pre-treatment ([1]; gut segments, without LNAME −355±8 μN, in µN): −223±29
effect on magnitude of EFS-induced relaxation ([1]; pre-incubation of implants with LNAME): significantly reduced
EFS-induced relaxation after LNAME pre-treatment ([1]; sphincters, without LNAME −294±26 μN): −140±6 μN
inhibition of EFS-induced relaxation (circular strips of hTEB; pretreatment with LNAME): 50%

NC1=N[C@H](O)[C@H]2[C@H]3O[C@]4(O)O[C@@H]([C@@H](O)[C@@]2(N1)[C@@H]4O)[C@]3(O)CO [TTX, tetrodotoxin]
effect on EFS-induced relaxation [1]: completely abolished
effect on EFS-induced relaxation (circular strips of hTEB): abolished
effect on Ach-induced contraction [2]: significantly attenuated
effect on EFS-induced relaxation [2]: completely inhibited
effect on VIP-induced relaxation [2]: significantly diminished

CN1[C@@H]2CC[C@H]1C[C@@H](OC(=O)C(CO)c1ccccc1)C2 (stereo partly shown) [atropine]
effect on ACh-induced contraction (circular strips of hTEB): did not cause a contraction; also recorded: inhibited
